From US20130136740A1, “METHODS OF TREATING CANCER” (priority 2011, published 2013) come the findings set out here.

The series in a line: Serum phosphate in rats. The class given is in vivo, Sprague Dawley rats. The following applies: daily dosing 50 mg/kg/day oral gavage, at 24 hour or 1 week. The protocol: FGFR1-ECD.339-Fc binds to the mitogenic FGFs with 10 to 100-fold higher affinity than to FGF-23. […] The potential biological impact of this relatively weak FGFR1-ECD.339-Fc/FGF-23 binding was investigated in rats following four weekly doses of FGFR1-ECD.339-Fc at a dose range of 10-200 mg/kg/qwk.
In the first experiment, Sprague Dawley rats (Charles River Labs; N=5/group) were dosed with vehicle, 10, 50 or 200 mg/kg/qwk of FGFR1-ECD.339-Fc for four weekly doses and plasma concentrations of FGFR1-ECD.339-Fc were determined throughout the study by an ELISA based detection method.
In the second experiment, Sprague Dawley rats (Charles River Labs; N=5/group) were administered the FGFR kinase inhibitor PD173074 (Chemdea, Ridgewood, N.J.; 50 mg/kg/day) or vehicle control by oral gavage for 7 days; or were administered FGFR1-ECD.339-Fc (200 mg/kg) or appropriate vehicle weekly by intravenous administration. Blood samples were collected at the time points indicated and serum phosphate was determined at 24 and 168 hours post-initiation of dosing (Idexx laboratories, Westbrook, Mass.).

As to `CCN(CC)CCCCNc1ncc2cc(-c3cc(OC)cc(OC)c3)c(NC(=O)NC(C)(C)C)nc2n1` [PD173043, reference compound], the plasma phosphate levels entry is recorded as “significantly elevated”.
